Results as given in patent US20070232614A1, “Therapeutic Agent for Nonviral Hepatitis” (Mitsubishi Pharma Corporation, priority 2004, published 2007).

What was measured:
[1] = test system: concanavalin A-induced hepatitis; conditions: prophylactic administration before injection of concanavalin A; mouse; non-patent references 3 and 4; cited from earlier work
[2] = test system: severe alcoholic hepatitis; conditions: non-patent references 1 and 2; cited from earlier work
[3] = test system: concanavalin A-induced hepatitis; assay: Action on concanavalin A-induced hepatitis (plasma ALT 8 hr after Con A); format: in vivo, female BALB/c mouse; conditions: therapeutic administration 3 hr after Con A injection (20 mg/kg i.v.), mouse
Experimental: 20 mg/kg of concanavalin A (Con A, type V, manufactured by Sigma) was intravenously administered to female BALB/c mouse (purchased from Charles River Laboratories JAPA, INC.). […] The administration time in the prophylactic administration test of pentoxifylline (manufactured by Sigma) or anti-mouse TNF-α antibody (manufactured by Genzyme-Techne) was set according to the method of Shirin et al. [Journal of Hepatology, 29, 60-67 (1998)] or Gantner et al. [Hepatology, 21, 190-198 (1995)]. The administration time in the therapeutic administration test was always set to 3 hr after Con A injection. To be specific, pentoxifylline (100 mg/kg) was intraperitoneally administered 2 hr before or 3 hr after Con A injection, anti-mouse TNF-α antibody (250 μg, was intravenously administrated 15 minutes before or 3 hr after Con A injection, and plasma SALT was similarly measured 8 hr later.
In addition, the test compound (10 mg/kg) was intravenously administrated 15 minutes before or 3 hr after Con A injection, and plasma ALT concentration was similarly measured.
The results are shown in mean±standard error.

CC(=O)CCCCn1c(=O)c2c(ncn2C)n(C)c1=O [pentoxifylline]
inhibition of the progress of concanavalin A-induced hepatitis [1]: inhibit the progress | effectiveness for severe alcoholic hepatitis [2]: effective | therapeutic effect in the hepatitis model (progress of concanavalin A-induced hepatitis, plasma ALT) [3]: do not inhibit progress

CC(=O)NC1(c2ccc(CN3CCN(c4ncccn4)CC3)cc2)CC1.Cl [test compound, N-(1-(4-((4-(pyrimidin-2-yl)piperazin-1-yl)methyl)phenyl)cyclopropyl)acetamide hydrochloride]
therapeutic effect in the hepatitis model (progress of concanavalin A-induced hepatitis, plasma ALT) [3]: shows a therapeutic effect
